Source: patent US20100311714A1, “1H-IMIDAZO[4,5-c]QUINOLINONE COMPOUNDS” (priority 2009, published 2010)
pIC50: −log10 of the molar value. Where two headings read alike, the source gives them in different places.

Tests used:
[1] = system: PKB Ser473 phosphorylation in Rat1-myr-HA-p110 delta cells; assay: Reverse protein array, PKB Ser473 phosphorylation in Rat1-myr-HA-p110 delta cells; type: cell-based; details: Rattus norvegicus, 0.5 h, 30 minutes compound incubation, read-out: p-PKB/IC50_delta
mTOR = molecular target: T1, mTOR (Homo sapiens, UniProt P42345); assay: Biochemical assay for m-TOR by TR-FRET
T1 construct: purchased Invitrogen Corporation (Carlsbad/Calif., USA) PV4753
T1 sequence (P42345 1360-2549 limits assumed): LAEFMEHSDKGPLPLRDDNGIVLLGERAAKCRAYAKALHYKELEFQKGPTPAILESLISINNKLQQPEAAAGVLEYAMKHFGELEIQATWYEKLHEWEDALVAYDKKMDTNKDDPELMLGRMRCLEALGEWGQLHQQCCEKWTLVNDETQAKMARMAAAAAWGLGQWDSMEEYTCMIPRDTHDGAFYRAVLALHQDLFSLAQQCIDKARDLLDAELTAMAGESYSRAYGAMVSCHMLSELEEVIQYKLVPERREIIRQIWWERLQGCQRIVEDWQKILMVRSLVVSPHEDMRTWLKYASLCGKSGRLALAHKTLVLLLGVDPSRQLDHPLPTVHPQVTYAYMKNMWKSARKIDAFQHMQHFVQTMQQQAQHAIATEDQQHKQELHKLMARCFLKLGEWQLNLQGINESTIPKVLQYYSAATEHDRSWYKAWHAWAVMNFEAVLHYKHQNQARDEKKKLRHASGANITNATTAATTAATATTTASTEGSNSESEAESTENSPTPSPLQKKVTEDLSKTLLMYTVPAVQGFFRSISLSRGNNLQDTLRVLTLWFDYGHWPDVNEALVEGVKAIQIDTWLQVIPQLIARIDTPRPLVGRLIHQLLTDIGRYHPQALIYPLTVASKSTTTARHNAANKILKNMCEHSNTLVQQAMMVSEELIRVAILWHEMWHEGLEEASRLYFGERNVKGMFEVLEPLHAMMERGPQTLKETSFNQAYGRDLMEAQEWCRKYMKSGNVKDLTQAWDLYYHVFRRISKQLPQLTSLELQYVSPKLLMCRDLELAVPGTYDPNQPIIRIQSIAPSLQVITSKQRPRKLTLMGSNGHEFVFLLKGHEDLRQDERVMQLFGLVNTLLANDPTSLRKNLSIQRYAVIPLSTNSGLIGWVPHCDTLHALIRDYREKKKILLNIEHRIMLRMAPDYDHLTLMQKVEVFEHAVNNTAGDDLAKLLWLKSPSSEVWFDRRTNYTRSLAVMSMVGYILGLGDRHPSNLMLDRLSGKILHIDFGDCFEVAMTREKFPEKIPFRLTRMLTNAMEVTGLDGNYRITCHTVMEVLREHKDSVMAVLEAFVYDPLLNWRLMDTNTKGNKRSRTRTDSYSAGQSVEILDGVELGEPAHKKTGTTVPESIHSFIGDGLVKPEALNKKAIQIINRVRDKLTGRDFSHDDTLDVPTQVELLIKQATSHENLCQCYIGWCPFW
Procedure, shortened: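 mTOR (0.5 nM) phosphorylates GFP-4EBP1 (400 nM) with 8 μM ATP at rt in 50 mM HEPES pH 7.5, 10 mM MnCl2, 50 mM NaCl, 1 mM EGTA, 1 mM DTT; compounds 0.003–10 μM final. EDTA stop with Tb-anti-p4EBP1[pT46] antibody (0.5 nM); TR-FRET read after 15 min against no-enzyme and vehicle controls.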

[2] = Parallel Artificial Membrane Permeability Assay (PAMPA) at pH 6.8; type: physicochemical
Procedure, shortened: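 PAMPA permeability measured at pH 6.8 following the Wohnsland and Faller method; value reported as log Pe.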

Row | Structure (SMILES) | pIC50 [1] | pIC50 (mTOR; read-out: EPK_mTOR/IC50) | HT-Perm logPe pH6.8 [2] | pIC50 (mTOR; read-out: mTOR/IC50) | HT-perm/logPe pH6.8 [2]
1 | Cc1ncccc1-n1c(=O)n(C)c2cnc3ccc(-c4cncc(N5CCC5)c4)cc3c21 [Example 2.29, 8-(5-Azetidin-1-yl-pyridin-3-yl)-3-methyl-1-(2-methyl-pyridin-3-yl)-1,3-dihydro-imidazo[4,5-c]quinolin-2-one] | 6.91 | 7.37 | −4.3 |  | 
2 | CNc1ccc(-c2ccc3ncc4c(c3c2)n(-c2cccnc2C)c(=O)n4C)cn1 [Example 2.13, 3-Methyl-8-(6-methylamino-pyridin-3-yl)-1-(2-methyl-pyridin-3-yl)-1,3-dihydro-imidazo[4,5-c]quinolin-2-one] | 7.43 |  |  | 7.72 | −4.7
3 | CN(C)c1ccc(-c2ccc3ncc4c(c3c2)n(-c2cccnc2)c(=O)n4C)cn1 [Example 5.3, 8-(6-Dimethylamino-pyridin-3-yl)-3-methyl-1-pyridin-3-yl-1,3-dihydro-imidazo[4,5-c]quinolin-2-one] | 6.60 |  |  | 6.60 | −3.9
4 | COc1ccc(-c2ccc3ncc4c(c3c2)n(-c2cnccc2C)c(=O)n4C)cn1 [Example 4.3, 8-(6-Methoxy-pyridin-3-yl)-3-methyl-1-(4-methyl-pyridin-3-yl)-1,3-dihydro-imidazo[4,5-c]quinolin-2-one] | 6.17 |  |  | 6.35 | −3.7
5 | COc1ccc(-c2ccc3ncc4c(c3c2)n(-c2cccnc2C)c(=O)n4C)cc1OC [Example 2.9, 8-(3,4-Dimethoxy-phenyl)-3-methyl-1-(2-methyl-pyridin-3-yl)-1,3-dihydro-imidazo[4,5-c]quinolin-2-one] | 7.47 |  |  | 7.64 | −3.3
6 | Cc1ncccc1-n1c(=O)n(C)c2cnc3ccc(-c4cncc(N)c4)cc3c21 [Example 2.25, 8-(5-Amino-pyridin-3-yl)-3-methyl-1-(2-methyl-pyridin-3-yl)-1,3-dihydro-imidazo[4,5-c]quinolin-2-one] | 6.96 | 7.92 | −7.7 |  | 
7 | Cc1ncccc1-n1c(=O)n(C)c2cnc3ccc(-c4cnc(N(C)C)nc4)cc3c21 [Example 2.15, 8-(2-Dimethylamino-pyrimidin-5-yl)-3-methyl-1-(2-methyl-pyridin-3-yl)-1,3-dihydro-imidazo[4,5-c]quinolin-2-one] | 6.99 |  |  | 7.28 | −3.7
8 | Cc1ncccc1-n1c(=O)n(C)c2cnc3ccc(-c4cnc(N)c(C(F)(F)F)c4)cc3c21 [Example 2.11, 8-(6-Amino-5-trifluoromethyl-pyridin-3-yl)-3-methyl-1-(2-methyl-pyridin-3-yl)-1,3-dihydro-imidazo[4,5-c]quinolin-2-one] | 7.68 |  |  | 7.80 | −4.0

Results, then the molecule that gave them:

Row | pIC50 [1] | pIC50 (mTOR; read-out: EPK_mTOR/IC50) | HT-Perm logPe pH6.8 [2] | pIC50 (mTOR; read-out: mTOR/IC50) | HT-perm/logPe pH6.8 [2] | Structure (SMILES)
9 | 7.60 | 7.92 | −4.5 |  |  | Cc1nc(N2CCCC2)ccc1-n1c(=O)n(C)c2cnc3ccc(-c4cncc(C(C)(C)O)c4)cc3c21 [Example 25.3, 8-[5-(1-Hydroxy-1-methyl-ethyl)-pyridin-3-yl]-3-methyl-1-(2-methyl-6-pyrrolidin-1-yl-pyridin-3-yl)-1,3-dihydro-imidazo[4,5-c]quinolin-2-one]
10 | 7.74 | 7.92 | −5 |  |  | CNc1ncc(-c2ccc3ncc4c(c3c2)n(-c2ccc(N3CC(O)C3)nc2C)c(=O)n4C)cc1C(F)(F)F [Example 29.4, 1-[6-(3-Hydroxy-azetidin-1-yl)-2-methyl-pyridin-3-yl]-3-methyl-8-(6-methylamino-5-trifluoromethyl-pyridin-3-yl)-1,3-dihydro-imidazo[4,5-c]quinolin-2-one]
11 | 7.37 | 8.15 | −5 |  |  | Cc1nc(N2CCC2)ccc1-n1c(=O)n(C)c2cnc3ccc(-c4cncc(C(C)(C)O)c4)cc3c21 [Example 23.3, 1-(6-Azetidin-1-yl-2-methyl-pyridin-3-yl)-8-[5-(1-hydroxy-1-methyl-ethyl)-pyridin-3-yl]-3-methyl-1,3-dihydro-imidazo[4,5-c]quinolin-2-one]
12 | 7.40 | 7.66 | −5.1 |  |  | COC1CCN(c2ccc(-n3c(=O)n(C)c4cnc5ccc(-c6cncc(C(C)(C)O)c6)cc5c43)c(C)n2)C1 (stereo not drawn) [Example 28.1, 8-[5-(1-Hydroxy-1-methyl-ethyl)-pyridin-3-yl]-1-[6-(3-methoxy-pyrrolidin-1-yl)-2-methyl-pyridin-3-yl]-3-methyl-1,3-dihydro-imidazo[4,5-c]quinolin-2-one]
13 | 6.84 |  |  | 6.97 | −3.9 | CCOc1ccc(-c2ccc3ncc4c(c3c2)n(-c2cccnc2F)c(=O)n4C)cn1 [Example 6.1, 8-(6-Ethoxy-pyridin-3-yl)-1-(2-fluoro-pyridin-3-yl)-3-methyl-1,3-dihydro-imidazo[4,5-c]quinolin-2-one]
14 | 6.74 | 7.06 | −3.7 |  |  | CCOc1cc(-c2ccc3ncc4c(c3c2)n(-c2ccc(F)nc2C)c(=O)n4C)cnc1COC [Example 7.5, 8-(5-Ethoxy-6-methoxymethyl-pyridin-3-yl)-1-(6-fluoro-2-methyl-pyridin-3-yl)-3-methyl-1,3-dihydro-imidazo[4,5-c]quinolin-2-one]
15 | 6.81 | 7.60 | −3.8 |  |  | CCOc1cc(-c2ccc3ncc4c(c3c2)n(-c2ccc(N3CCC3)nc2C)c(=O)n4C)cnc1COC [Example 23.5, 1-(6-Azetidin-1-yl-2-methyl-pyridin-3-yl)-8-(5-ethoxy-6-methoxymethyl-pyridin-3-yl)-3-methyl-1,3-dihydro-imidazo[4,5-c]quinolin-2-one]
16 | 7.09 | 7.07 | −5.5 |  |  | Cc1nc(F)ccc1-n1c(=O)n(C)c2cnc3ccc(-c4cncc(C(C)(C)O)c4)cc3c21 [Example 7.8, 1-(6-Fluoro-2-methyl-pyridin-3-yl)-8-[5-(1-hydroxy-1-methyl-ethyl)-pyridin-3-yl]-3-methyl-1,3-dihydro-imidazo[4,5-c]quinolin-2-one]
17 | 7.52 | 8.00 | −4.8 |  |  | CNc1ncc(-c2ccc3ncc4c(c3c2)n(-c2ccc(N3CC[C@H](O)C3)nc2C)c(=O)n4C)cc1F [Example 32.2, 8-(5-Fluoro-6-methylamino-pyridin-3-yl)-1-[6-((S)-3-hydroxy-pyrrolidin-1-yl)-2-methyl-pyridin-3-yl]-3-methyl-1,3-dihydro-imidazo[4,5-c]quinolin-2-one]
18 | 7.37 | 7.68 | −3.9 |  |  | CNc1ncc(-c2ccc3ncc4c(c3c2)n(-c2ccc(N3CC(F)(F)C3)nc2C)c(=O)n4C)cn1 [Example 24.1, 1-[6-(3,3-Difluoro-azetidin-1-yl)-2-methyl-pyridin-3-yl]-3-methyl-8-(2-methylamino-pyrimidin-5-yl)-1,3-dihydro-imidazo[4,5-c]quinolin-2-one]
19 | 6.60 | 6.67 | −4.1 |  |  | CCNc1ncc(-c2ccc3ncc4c(c3c2)n(-c2ccc(N3CC[C@@H](O)C3)nc2C)c(=O)n4C)cc1COCC [Example 34.4, 8-(5-Ethoxymethyl-6-ethylamino-pyridin-3-yl)-1-[6-((R)-3-hydroxy-pyrrolidin-1-yl)-2-methyl-pyridin-3-yl]-3-methyl-1,3-dihydro-imidazo[4,5-c]quinolin-2-one]
20 | 7.40 | 7.44 | −3.9 |  |  | CCNc1ncc(-c2ccc3ncc4c(c3c2)n(-c2ccc(N3CC[C@@H](O)C3)nc2C)c(=O)n4C)cc1C(F)(F)F [Example 34.2, 8-(6-Ethylamino-5-trifluoromethyl-pyridin-3-yl)-1-[6-((R)-3-hydroxy-pyrrolidin-1-yl)-2-methyl-pyridin-3-yl]-3-methyl-1,3-dihydro-imidazo[4,5-c]quinolin-2-one]
21 | 6.40 | 7.21 | −7.8 |  |  | COc1cc(-c2ccc3ncc4c(c3c2)n(-c2ccc(N3CC(O)C3)nc2C)c(=O)n4C)cnc1CO [Example 29.5, 1-[6-(3-Hydroxy-azetidin-1-yl)-2-methyl-pyridin-3-yl]-8-(6-hydroxymethyl-5-methoxy-pyridin-3-yl)-3-methyl-1,3-dihydro-imidazo[4,5-c]quinolin-2-one]
22 | 7.75 | 8.40 | −5 |  |  | CNc1ncc(-c2ccc3ncc4c(c3c2)n(-c2ccc(N3CC[C@H](O)C3)nc2C)c(=O)n4C)cn1 [Example 32.1, 1-[6-((S)-3-Hydroxy-pyrrolidin-1-yl)-2-methyl-pyridin-3-yl]-3-methyl-8-(2-methylamino-pyrimidin-5-yl)-1,3-dihydro-imidazo[4,5-c]quinolin-2-one]
23 | 7.99 | 8.40 | −5.7 |  |  | CCNc1cc(-c2ccc3ncc4c(c3c2)n(-c2ccc(N3CCC3)nc2C)c(=O)n4C)cnc1CO [Example 23.8, 1-(6-Azetidin-1-yl-2-methyl-pyridin-3-yl)-8-(5-ethylamino-6-hydroxymethyl-pyridin-3-yl)-3-methyl-1,3-dihydro-imidazo[4,5-c]quinolin-2-one]
24 | 7.02 | 7.37 | −3.8 |  |  | Cc1nc(N2CC[C@H](O)C2)ccc1-n1c(=O)n(C)c2cnc3ccc(-c4cncc(OC(C)C)c4)cc3c21 [Example 32.8, 1-[6-((S)-3-Hydroxy-pyrrolidin-1-yl)-2-methyl-pyridin-3-yl]-8-(5-isopropoxy-pyridin-3-yl)-3-methyl-1,3-dihydro-imidazo[4,5-c]quinolin-2-one]
